The source of these data is patent US9309198B2, “N-[3-(2-carboxyethyl)phenyl]piperidin-1-ylacetamide derivatives and use thereof as activators of soluble guanylate cyclase” (Bayer Pharma Aktiengesellschaft, priority 2012, dated 2016).

Structures can show the parent of a compound that is named as a salt.

The target in this assay is T1, recombinant guanylate cyclase reporter cell line (sGC, CHO reporter cell) (Rattus norvegicus, UniProt P20595).
T1 construct: expressed in transfected cells; host or cells: CHO reporter cell line
T1 sequence (P20595 1-619): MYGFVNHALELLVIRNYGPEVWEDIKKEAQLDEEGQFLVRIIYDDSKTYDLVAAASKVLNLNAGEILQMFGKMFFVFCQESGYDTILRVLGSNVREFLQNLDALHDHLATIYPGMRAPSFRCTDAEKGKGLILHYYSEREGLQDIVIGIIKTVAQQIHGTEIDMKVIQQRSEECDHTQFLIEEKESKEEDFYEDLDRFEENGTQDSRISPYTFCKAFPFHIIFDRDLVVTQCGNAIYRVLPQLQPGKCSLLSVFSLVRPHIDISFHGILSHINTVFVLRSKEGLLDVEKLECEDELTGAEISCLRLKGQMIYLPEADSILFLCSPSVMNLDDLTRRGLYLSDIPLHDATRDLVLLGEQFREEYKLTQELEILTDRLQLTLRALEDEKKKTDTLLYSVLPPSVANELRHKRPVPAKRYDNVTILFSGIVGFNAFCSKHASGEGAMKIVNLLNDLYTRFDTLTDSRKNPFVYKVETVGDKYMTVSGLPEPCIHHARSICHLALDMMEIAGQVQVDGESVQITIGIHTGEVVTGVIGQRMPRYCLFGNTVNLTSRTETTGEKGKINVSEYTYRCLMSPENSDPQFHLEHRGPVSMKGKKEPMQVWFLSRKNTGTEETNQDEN
T1 sequence (P19686 1-690 partner): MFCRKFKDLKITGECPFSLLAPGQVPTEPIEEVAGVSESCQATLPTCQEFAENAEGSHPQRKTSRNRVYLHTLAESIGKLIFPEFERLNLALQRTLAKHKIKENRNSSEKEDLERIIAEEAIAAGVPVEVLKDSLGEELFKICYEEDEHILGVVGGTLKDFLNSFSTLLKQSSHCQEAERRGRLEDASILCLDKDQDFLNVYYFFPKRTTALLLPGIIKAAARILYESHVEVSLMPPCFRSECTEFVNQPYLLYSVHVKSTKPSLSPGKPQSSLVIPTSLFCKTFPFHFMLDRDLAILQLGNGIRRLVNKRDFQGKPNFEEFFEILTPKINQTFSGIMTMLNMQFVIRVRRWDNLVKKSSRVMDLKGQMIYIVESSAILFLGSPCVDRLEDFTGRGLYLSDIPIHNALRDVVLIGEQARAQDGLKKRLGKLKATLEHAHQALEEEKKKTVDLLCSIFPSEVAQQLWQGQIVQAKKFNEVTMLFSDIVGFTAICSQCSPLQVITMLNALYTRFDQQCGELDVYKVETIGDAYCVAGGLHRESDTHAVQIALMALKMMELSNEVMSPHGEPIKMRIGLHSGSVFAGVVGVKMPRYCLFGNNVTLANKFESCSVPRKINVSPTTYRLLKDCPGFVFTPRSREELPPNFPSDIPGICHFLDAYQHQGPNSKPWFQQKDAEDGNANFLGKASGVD
Put plainly: Effect on a recombinant guanylate cyclase reporter cell line (CHO reporter cell). The assay is classed as cell-based. Here is the method: B-2. Effect on a Recombinant Guanylate Cyclase Reporter Cell Line The cellular activity of the compounds according to the invention is determined using a recombinant guanylate cyclase reporter cell line, as described in F. Wunder et al., Anal. Biochem. 339, 104-112 (2005).
For `CC1CCN(C(C(=O)Nc2cc(CCC(=O)O)ccc2Cl)C(C)C(F)(F)F)CC1` (racemic) [Example 1, 3-(4-Chloro-3-{[4,4,4-trifluoro-3-methyl-2-(4-methylpiperidin-1-yl)butanoyl]amino}phenyl)propanoic acid], the “MEC (minimum effective concentration), sGC-activating activity in the CHO reporter cell in vitro” value (“MEC (minimum effective concentration)” for short) is recorded as 20 nM. With `COC1CCN(C(C(=O)Nc2cc(CC3(C(=O)O)CC3)ccc2F)C2CCCC2)CC1` (racemic) [Example 52, rac-1-(3-{[Cyclopentyl(4-methoxypiperidin-1-yl)acetyl]amino}-4-fluorobenzyl)cyclopropanecarboxylic acid trifluoroacetate], the “MEC (minimum effective concentration)” value is listed as 3000 nM. The value for `CC(C(C(=O)Nc1cc(CC2(C(=O)O)CC2)ccc1F)N1CCCCC1)C(F)(F)F` (single isomer, unassigned) [Example 2, 1-(4-fluoro-3-{[4,4,4-trifluoro-3-methyl-2-(piperidin-1-yl)butanoyl]amino}benzyl)cyclopropanecarboxylic acid] was 20 nM; that for `CC1CCN(C(C(=O)Nc2cc(CC3(C(=O)O)CC3)ccc2F)C(C)C(F)(F)F)CC1` (single isomer, unassigned) [Example 4, 1-(4-fluoro-3-{[4,4,4-trifluoro-3-methyl-2-(4-methylpiperidin-1-yl)butanoyl]amino}benzyl)cyclopropanecarboxylic acid] was 5 nM. As for `CC1CCN(C(C(=O)Nc2cc(CCC(=O)O)ccc2F)C(C)C(F)(F)F)CC1` (single isomer, unassigned) [Example 6, 3-(4-fluoro-3-{[4,4,4-trifluoro-3-methyl-2-(4-methylpiperidin-1-yl)butanoyl]amino}phenyl)propanoic acid], the “MEC (minimum effective concentration)” value amounted to 60 nM. The value for `CCC1CCN(C(C(=O)Nc2cc(CCC(=O)O)ccc2F)C(C)C(F)(F)F)CC1` (single isomer, unassigned) [Example 9, 3-(3-{[2-(4-ethylpiperidin-1-yl)-4,4,4-trifluoro-3-methylbutanoyl]amino}-4-fluorophenyl)propanoic acid] was 10 nM.

On to `CC1CCN(C(C(=O)Nc2cc(CCC(=O)O)ccc2Cl)C(C)C(F)(F)F)CC1` (single isomer, unassigned) [Example 13, 3-(4-chloro-3-{[4,4,4-trifluoro-3-methyl-2-(4-methylpiperidin-1-yl)butanoyl]amino}phenyl)propanoic acid], for which the “MEC (minimum effective concentration)” value came to 30 nM. With `CCC1CCN([C@H](C(=O)Nc2cc(CC3(C(=O)O)CC3)ccc2F)[C@H](C)C(F)(F)F)CC1` (single isomer, unassigned) [Example 38], the “MEC (minimum effective concentration)” value was 300 nM. In the case of `CCC1CCN([C@H](C(=O)Nc2cc(CCC(=O)O)ccc2F)[C@H](C)C(F)(F)F)CC1` (single isomer, unassigned) [Example 40], the “MEC (minimum effective concentration)” value came out at 1000 nM.

Turning to `CCC1CCN([C@@H](C(=O)Nc2cc(CCC(=O)O)ccc2F)[C@@H](C)C(F)(F)F)CC1` (single isomer, unassigned) [Example 41], the “MEC (minimum effective concentration)” value turned out to be 10 nM. The value for `CC1CCN([C@H](C(=O)Nc2cc(CCC(=O)O)ccc2Cl)[C@H](C)C(F)(F)F)CC1` (single isomer, unassigned) [Example 42] was 300 nM; that for `CC1CCN([C@@H](C(=O)Nc2cc(CCC(=O)O)ccc2Cl)[C@@H](C)C(F)(F)F)CC1` (single isomer, unassigned) [Example 43] was 10 nM. The value for `CCC1CCN([C@H](C(=O)Nc2cc(CCC(=O)O)ccc2Cl)[C@H](C)C(F)(F)F)CC1` (single isomer, unassigned) [Example 44] was 1000 nM; that for `CCC1CCN([C@@H](C(=O)Nc2cc(CCC(=O)O)ccc2Cl)[C@@H](C)C(F)(F)F)CC1` (single isomer, unassigned) [Example 45] was 3 nM. `CC1CCN([C@@H](C(=O)Nc2cc([C@@H](C)CC(=O)O)ccc2Cl)[C@@H](C)C(F)(F)F)CC1` (single isomer, unassigned) [Example 49]: the “MEC (minimum effective concentration)” value stood at 3 nM. Regarding `C[C@H]([C@H](C(=O)Nc1cc([C@@H](C)CC(=O)O)ccc1Cl)N1CCC2(CC1)CC2)C(F)(F)F` (single isomer, unassigned) [Example 50], the “MEC (minimum effective concentration)” value amounted to 10 nM. With `CC(C(C(=O)Nc1cc(CC2(C(=O)O)CC2)ccc1F)N1CCCCC1)C(F)(F)F` (single isomer, unassigned; (+)) [Example 35, (+)-1-(4-Fluoro-3-{[4,4,4-trifluoro-3-methyl-2-(piperidin-1-yl)butanoyl]amino}benzyl)cyclopropanecarboxylic acid] the figure was 30 nM. With `CC1CCN(C(C(=O)Nc2cc(CCC(=O)O)ccc2F)C(C)C(F)(F)F)CC1.O=C(O)C(F)(F)F` (single isomer, unassigned; (+)) [Example 37, (+)-3-(4-Fluoro-3-{[4,4,4-trifluoro-3-methyl-2-(4-methylpiperidin-1-yl)butanoyl]amino}phenyl)propanoic acid trifluoroacetate] the figure was 200 nM; with `CC(C(C(=O)Nc1cc(CC2(C(=O)O)CC2)ccc1F)N1CCCCC1)C(F)(F)F` (stereo not shown) [Example 3], 60 nM.

With `CC1CCN(C(C(=O)Nc2cc(CCC(=O)O)ccc2F)C(C)C(F)(F)F)CC1` (stereo not shown) [Example 5], the “MEC (minimum effective concentration)” value worked out at 30 nM. With `CC1CCN([C@@H](C(=O)Nc2cc(CCC(=O)O)ccc2F)[C@@H](C)C(F)(F)F)CC1` [Example 7] the figure was 60 nM; with `CCC1CCN(C(C(=O)Nc2cc(CCC(=O)O)ccc2F)C(C)C(F)(F)F)CC1` (stereo not shown) [Example 10], 30 nM. As to `CCC1CCN(C(C(=O)Nc2cc(CCC(=O)O)ccc2Cl)C(C)C(F)(F)F)CC1` (stereo not shown) [Example 12], the “MEC (minimum effective concentration)” value is on record as 30 nM. The value for `CC(C(C(=O)Nc1cc(CCC(=O)O)ccc1Cl)N1CCC(C(F)(F)F)CC1)C(F)(F)F` (stereo not shown) [Example 14] was 30 nM. With `CC(C(C(=O)Nc1cc(CCC(=O)O)ccc1F)N1CCC2(CC1)CC2)C(F)(F)F` (stereo not shown) [Example 15] the figure was 10 nM; with `C[C@H]([C@H](C(=O)Nc1cc(CCC(=O)O)ccc1F)N1CCC2(CC1)CC2)C(F)(F)F` [Example 16], 50 nM; with `C[C@H]([C@H](C(=O)Nc1cc(CCC(=O)O)ccc1Cl)N1CCC(C(F)(F)F)CC1)C(F)(F)F` [Example 17], 3 nM. With `C[C@H]([C@H](C(=O)Nc1cc(CCC(=O)O)ccc1Cl)N1CCC2(CC1)CC2)C(F)(F)F` [Example 19] the figure was 3 nM. On to `C[C@H]([C@H](C(=O)Nc1cc(CCC(=O)O)ccc1F)N1CCC(c2ccccc2)CC1)C(F)(F)F` [Example 22], for which the “MEC (minimum effective concentration)” value came out at 300 nM. With `C[C@H]([C@H](C(=O)Nc1cc([C@@H](C)CC(=O)O)ccc1Cl)N1CCC(C(F)(F)F)CC1)C(F)(F)F` [Example 23] the figure was 3 nM. Consider `C[C@H]([C@H](C(=O)Nc1cc(CCC(=O)O)ccc1F)N1CCC(C(F)(F)F)CC1)C(F)(F)F` [Example 24], for which the “MEC (minimum effective concentration)” value was determined as 100 nM.
